US12370188B2, “Formulations of dazucorilant, a glucocorticoid receptor modulator” (Corcept Therapeutics Incorporated, priority 2022, dated 2025)

Assay: Solubility of Compound I in water
Assay type: physicochemical
Excerpt: Compositions prepared by routine methods, even if able to solubilize small amounts of Compound I, have proven unstable with Compound I falling out of solution, or in which Compound I is found to be subject to rapid degradation, or incompatible with a pharmaceutically acceptable capsule.

solubility in water: practically insoluble
Structure (SMILES): O=C(c1ccccn1)[C@]12Cc3cnn(-c4ccc(F)cc4)c3C=C1CCN(S(=O)(=O)c1ccc(C(F)(F)F)cc1)C2 [Compound I, (R)-(1-(4-fluorophenyl)-6-((4-(trifluoromethyl)phenyl)sulfonyl)-4,4a,5,6,7,8-hexahydro-1H-pyrazolo[3,4-g]isoquinolin-4a-yl)(pyridin-2-yl)methanone]
